pIC50, pKi: −log10 of the molar value.
Experiments:
CDK2/cyclin A = target: T1, CDK2/cyclin A (Homo sapiens, UniProt P24941); experiment: Inhibition of CDK2/cyclin A retinoblastoma kinase activity (Ki; % inhibition); type: biochemical; conditions: for pKi: apparent Ki, CDK2/cyclin A, Rb substrate
T1 construct: made in house; host or cells: CDK2: insect cells (baculovirus); cyclin A: E. coli
Outline: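 Radiometric filter assay of CDK2/proteolyzed cyclin A (baculovirus-expressed human CDK2, 10 or 19 nM) phosphorylating an Rb fragment with 25 μM [³²P/³³P]ATP in pH 7.4 HEPES, 2% DMSO, at 30 °C for 60 or 75 min under initial-rate conditions. Library compounds screened at 30 nM for % inhibition; apparent Ki from concentration series fit to competitive or tight-binding inhibition equations.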

HCT-116 cell line = experiment: Inhibition of cell growth, MTT tetrazolium salt assay; type: cell-based; conditions: for pIC50: Homo sapiens, HCT-116, 120 h, MTT, three to five days
Outline: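 Growth inhibition was read as MTT-formazan absorbance at 540 nm, after 4 h with 0.2 mg/mL MTT. Before that, HCT-116 cells had been exposed 3–5 days at 37 °C to compounds in 0.5% (v/v) DMSO, added 4 h after plating. 50% and 90% inhibitory concentrations were taken from semi-log concentration–inhibition plots versus vehicle controls.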

human CDK4/cyclin D3 = target: T2, human CDK4/cyclin D3 (Homo sapiens, UniProt P11802); experiment: Inhibition of CDK4/cyclin D retinoblastoma kinase activity (Ki; % inhibition); type: biochemical; conditions: for pKi: apparent Ki, CDK4/cyclin D3, Rb substrate
T2 construct: made in house; host or cells: insect cells co-infected with baculovirus vectors
Outline: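 Insect-cell-expressed CDK4 with truncated cyclin D3 (1-264), 5 nM, phosphorylating His-tagged Rb fragment (386-928) with 25 μM [32/33P]ATP at pH 7.4, 30 °C, 20 min (60 min for tight binders). Filter capture, phosphorimager read; % inhibition at 30 nM compound, Ki from competitive or tight-binding fits.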

[1] = HCT-116 cells, 0.25 μM compound

T2 sequence (P11802 whole entry): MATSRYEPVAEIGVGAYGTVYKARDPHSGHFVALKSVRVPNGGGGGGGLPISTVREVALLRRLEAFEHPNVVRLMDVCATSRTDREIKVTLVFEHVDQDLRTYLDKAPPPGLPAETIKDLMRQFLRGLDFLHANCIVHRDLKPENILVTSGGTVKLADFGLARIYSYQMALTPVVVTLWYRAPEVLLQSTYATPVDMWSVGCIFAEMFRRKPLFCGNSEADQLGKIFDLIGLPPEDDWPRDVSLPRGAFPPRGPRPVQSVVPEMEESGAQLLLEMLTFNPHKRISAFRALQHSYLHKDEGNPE
T2 sequence (P30281 1-264 partner limits assumed): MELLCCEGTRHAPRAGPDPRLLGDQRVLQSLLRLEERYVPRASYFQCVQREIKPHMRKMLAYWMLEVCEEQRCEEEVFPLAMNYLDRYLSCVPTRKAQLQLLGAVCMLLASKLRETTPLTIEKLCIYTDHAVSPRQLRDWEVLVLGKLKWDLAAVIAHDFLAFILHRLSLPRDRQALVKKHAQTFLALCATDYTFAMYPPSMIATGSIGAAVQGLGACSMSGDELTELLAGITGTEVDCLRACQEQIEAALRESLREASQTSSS

| SMILES | CDK2 % Inhibition at 0.03 μM (CDK2/cyclin A; 0.03 μM compound) | HCT-116 % Inhibition at 0.1 μM (HCT-116 cell line; HCT-116 cells, 0.1 μM compound) | HCT-116 % Inhibition at 0.25 μM (HCT-116 cell line; [1]) | CDK4 % Inhibition at 0.03 μM (human CDK4/cyclin D3; 0.03 μM compound) | CDK2 % Inhibition at 0.03 μM (CDK2/cyclin A; at 0.03 μM) | HCT-116 % Inhibition at 0.25 μM (HCT-116 cell line; HCT-116, at 0.25 μM) | CDK4 % Inhibition at 0.03 μM (human CDK4/cyclin D3; at 0.03 μM) | further results |
| --- | --- | --- | --- | --- | --- | --- | --- | --- |
| CCOC(=O)N1CCC(NC(=O)c2ccc(Nc3nc(N)c(C(=O)c4c(F)cccc4F)s3)cc2)CC1 [Example G231] | 15% | 6% | 55% | 30% | – | – | – | – |
| Nc1nc(Nc2ccc(C(=O)NCc3cc(Cl)ccc3Cl)cc2)sc1C(=O)c1c(F)cccc1F [Example G286] | 23% | 10% | 60% | 25% | – | – | – | – |
| C[C@@H]1CN(CCNC(=O)c2ccc(Nc3nc(N)c(C(=O)c4c(F)cccc4F)s3)cc2)C[C@H](C)N1 [Example A57] | – | – | – | – | – | – | – | pKi (CDK2/cyclin A): 7.27; pIC50 (HCT-116 cell line): 5.42; pKi (human CDK4/cyclin D3): 8.00 |
| Cc1ccc([C@H](C)NC(=O)c2ccc(Nc3nc(N)c(C(=O)c4c(F)cccc4F)s3)cc2)cc1 [Example G245] | 36% | 18% | 55% | 34% | – | – | – | – |
| CN(C)C(C)(C)CNC(=O)c1ccc(Nc2nc(N)c(C(=O)c3c(F)cccc3F)s2)cc1 [Example A12, 4-[4-Amino-5-(2,6-difluoro-benzoyl)-thiazol-2-ylamino]-N-(2-dimethylamino-2-methyl-propyl)-benzamide] | – | – | – | – | – | – | – | pKi (CDK2/cyclin A): 7.04; pIC50 (HCT-116 cell line): 6.89; pKi (human CDK4/cyclin D3): 7.70 |
| Nc1nc(Nc2ccc(C(=O)Nc3ccc4c(c3)S(=O)(=O)C=C4)cc2)sc1C(=O)c1c(F)cccc1F [Example G115] | – | – | – | – | 27% | 88% | 24% | HCT-116 % Inhibition at 0.1 μM (HCT-116 cell line; HCT-116, at 0.1 μM): 30% |
| CNC(=O)c1ccccc1NC(=O)c1ccc(Nc2nc(N)c(C(=O)c3c(F)cccc3F)s2)cc1 [Example G161] | – | – | – | – | 13% | 57% | 7% | HCT-116 % Inhibition at 0.1 μM (HCT-116 cell line; HCT-116, at 0.1 μM): 0% |
| CC(C)CCNC(=O)c1ccc(Nc2nc(N)c(C(=O)c3c(F)cccc3F)s2)cc1 [Example G247] | 17% | 12% | 54% | 23% | – | – | – | – |
| C[C@@H](CNC(=O)c1ccc(Nc2nc(N)c(C(=O)c3c(F)cccc3F)s2)cc1)N(C)C [Example A42, 4-[4-Amino-5-(2,6-difluoro-benzoyl)-thiazol-2-ylamino]-N-(2S-dimethylamino-propyl)-benzamide] | – | – | – | – | – | – | – | pKi (CDK2/cyclin A): 6.78; pIC50 (HCT-116 cell line): 6.82; pKi (human CDK4/cyclin D3): 7.64 |
| Nc1nc(Nc2ccc(C(=O)NC3CC3)cc2)sc1C(=O)c1c(F)cccc1F [Example G123] | – | – | – | – | −5% | 50% | 12% | HCT-116 % Inhibition at 0.1 μM (HCT-116 cell line; HCT-116, at 0.1 μM): 4% |
| CC(C)CN(C)C(=O)c1ccc(Nc2nc(N)c(C(=O)c3c(F)cccc3F)s2)cc1 [Example G72] | – | – | – | – | 2% | 54% | 12% | – |
| CN(C)CCCN(C)C(=O)c1ccc(Nc2nc(N)c(C(=O)c3c(F)cccc3F)s2)cc1 [Example G64] | – | – | – | – | 5% | 57% | 17% | – |
| CN1CC[C@@H](NC(=O)c2ccc(Nc3nc(N)c(C(=O)c4c(F)cccc4F)s3)cc2)C1 [Example A30, 4-[4-Amino-5-(2,6-difluoro-benzoyl)-thiazol-2-ylamino]-N-(1-methyl-pyrrolidin-3R-yl)-benzamide] | – | – | – | – | – | – | – | pKi (CDK2/cyclin A): 7.16; pIC50 (HCT-116 cell line): 7.05; pKi (human CDK4/cyclin D3): 8.15 |
| CCCCN(CC#N)C(=O)c1ccc(Nc2nc(N)c(C(=O)c3c(F)cccc3F)s2)cc1 [Example G9] | – | – | – | – | −1% | 46% | 2% | – |
| CCOc1ccc(NC(=O)c2ccc(Nc3nc(N)c(C(=O)c4c(F)cccc4F)s3)cc2)cc1 [Example G313] | 11% | 10% | 57% | 12% | – | – | – | – |
| CCN1CCN(C(=O)c2ccc(Nc3nc(N)c(C(=O)c4c(F)cccc4F)s3)cc2)CC1 [Example G81] | – | – | – | – | 15% | 58% | 19% | – |
| Nc1nc(Nc2ccc(C(=O)N3CCc4ccccc4C3)cc2)sc1C(=O)c1c(F)cccc1F [Example G79] | – | – | – | – | 2% | 51% | 10% | – |
| Nc1nc(Nc2ccc(C(=O)NCCc3ccncc3)cc2)sc1C(=O)c1c(F)cccc1F [Example A29, 4-[4-Amino-5-(2,6-difluoro-benzoyl)-thiazol-2-ylamino]-N-(2-pyridin-4-yl-ethyl)-benzamide] | – | – | – | – | – | – | – | pKi (CDK2/cyclin A): 7.28; pIC50 (HCT-116 cell line): 6.66; pKi (human CDK4/cyclin D3): 7.59 |
| CN1CCCC1CCNC(=O)c1ccc(Nc2nc(N)c(C(=O)c3c(F)cccc3F)s2)cc1 (stereo not drawn) [Example G147] | – | – | – | – | 10% | 65% | 35% | HCT-116 % Inhibition at 0.1 μM (HCT-116 cell line; HCT-116, at 0.1 μM): 0% |
| C#CCN(C)C(=O)c1ccc(Nc2nc(N)c(C(=O)c3c(F)cccc3F)s2)cc1 [Example G282] | −14% | 1% | 56% | 6% | – | – | – | – |
| CN(C)CCCN1CCN(C(=O)c2ccc(Nc3nc(N)c(C(=O)c4c(F)cccc4F)s3)cc2)CC1 [Example G357] | −14% | 17% | 88% | 17% | – | – | – | – |
| Nc1nc(Nc2ccc(C(=O)NCCc3c(Cl)cccc3Cl)cc2)sc1C(=O)c1c(F)cccc1F [Example G372] | −21% | 19% | 51% | 6% | – | – | – | – |
| CCN1CCCC1CNC(=O)c1ccc(Nc2nc(N)c(C(=O)c3c(F)cccc3F)s2)cc1 (stereo not drawn) [Example G154] | – | – | – | – | 10% | 91% | 34% | HCT-116 % Inhibition at 0.1 μM (HCT-116 cell line; HCT-116, at 0.1 μM): 17% |
| Nc1nc(Nc2ccc(C(=O)N(CCCCO)Cc3ccccc3)cc2)sc1C(=O)c1c(F)cccc1F [Example G351] | 0% | 24% | 62% | −1% | – | – | – | – |
| CC(CO)NC(=O)c1ccc(Nc2nc(N)c(C(=O)c3c(F)cccc3F)s2)cc1 (stereo not drawn) [Example G109] | – | – | – | – | 6% | – | 22% | HCT-116 % Inhibition at 0.1 μM (HCT-116 cell line; HCT-116, at 0.1 μM, 0.1 µM): 0%; HCT-116 % Inhibition at 0.25 μM (HCT-116 cell line; HCT-116, at 0.25 μM, 0.25 µM): 54% |
| CN(C)CCNC(=O)c1ccc(Nc2nc(N)c(C(=O)c3c(F)cccc3F)s2)cc1 [Example G149] | – | – | – | – | 23% | 82% | 36% | HCT-116 % Inhibition at 0.1 μM (HCT-116 cell line; HCT-116, at 0.1 μM): 10% |
| CSc1ccc(NC(=O)c2ccc(Nc3nc(N)c(C(=O)c4c(F)cccc4F)s3)cc2)cc1 [Example G255] | −25% | 25% | 63% | 0% | – | – | – | – |
| Nc1nc(Nc2ccc(C(=O)NCCO)cc2)sc1C(=O)c1c(Cl)cccc1Cl [Example B2, 4-[4-Amino-5-(2,6-dichloro-benzoyl)-thiazol-2-ylamino]-N-(2-hydroxy-ethyl)-benzamide] | – | – | – | – | – | – | – | pKi (CDK2/cyclin A): 7.02; pIC50 (HCT-116 cell line): 5.44; pKi (human CDK4/cyclin D3): 7.74 |
| Nc1nc(Nc2ccc(C(=O)Nc3ccc(CCO)cc3)cc2)sc1C(=O)c1c(F)cccc1F [Example G328] | 19% | 33% | 89% | 29% | – | – | – | – |

From patent US6720346B2, “Thiazole benzamide derivatives and pharmaceutical compositions for inhibiting cell proliferation” (Agouron Pharmaceuticals, Inc., priority 2001, dated 2004)
